In assay [1] the test system is endothelial cells (canine aorta). In words: Serum (1%)-induced endothelial cell proliferation, 3H-thymidine incorporation. It is filed as cell-based. The conditions noted are these: for IC50: read-out: ED50 FOR ENDOTHELIAL CELL (concentration at which proliferation is inhibited by 50%); for order of potency for endothelial cells: from Table 2. Here is the method:
(§1) The effect of 1% serum on DNA synthesis by endothelial or smooth muscle cells using ^3 H-thymidine incorporation was measured. For measuring the effectiveness of retinoids in inhibiting endothelial or smooth muscle cell proliferation induced by certain mitogens, i.e., serotonin or β-FGF the indicated concentrations were added to the media instead of 1% serum. Primary cells isolated from canine aorta were used for these studies. Unlike the typical cell lines (e.g. NIH 3T3 cells, etc.) 6-7 weeks are required to isolate and grow these primary cells in sufficient number to perform a single experiment. For the following studies, the primary cells (passages 2-4) were plated on 35×10 mm tissue culture dishes in 10% fetal bovine serum (FBS) and incubated. After 72 hours of growth the medias was replaced with 0.1% FBS for synchronization and incubated for additional 72 hours. Then 1% serum was added and incubated for 20 hours followed by the addition of 1μCi of ^3 H-thymidine. Four hours after the addition of 3H-thymidine the DNA was precipitated and the amount of ^3 H-thymidine incorporated was measured. This value is reported as the serum or serotonin or β-FGF stimulated value for cellular proliferation and is expressed as a percentage of baseline ^3 H-thymidine incorporation.
(§2) To examine the antiproliferative effect of retinoids, they were dissolved in 100% ethanol and then added at the indicated final concentrations. The compounds were added at the time of adding 1% serum or serotonin or β-FGF to stimulate the cells. (The maximal final concentration of ethanol in culture media was 1% which is non-cytotoxic to endothelial or smooth muscle cells). After 20 hours of incubation with retinoids and 1% serum or serotonin or β-FGF, the ^3 H-thymidine incorporation was measured.
(§3) In this experimental dosages ranging between 0.01 and 100 μM were evaluated for the effect of AGN 191183 on cell growth.
(§4) The other retinoids, disclosed above, were also tested for their effect on smooth muscle and endothelial cell growth at the same dosages as for AGN 191183. Table 2 reports the ED50 for each of these retinoids.

For assay [2], the system named is smooth muscle cells (canine aorta). Put plainly: Serum (1%)-induced smooth muscle cell proliferation, 3H-thymidine incorporation. The format is cell-based. The conditions noted are these: for IC50: Canis lupus familiaris; for rank order potency on smooth muscle cells: from Table 2. On the procedure: as §1, §2, §3, §4
The test system is the same in assay [3]. In words: Serotonin-induced smooth muscle cell proliferation, 3H-thymidine incorporation. The conditions noted are these: Canis lupus familiaris, Table 3, read-out: ED50 FOR SMOOTH MUSCLE CELLS, Serotonin. It is filed as cell-based. On the procedure:
as §1
(§5) To examine the antiproliferative effect of retinoids, they were dissolved in 100% ethanol and then added at the indicated final concentrations. The compounds were added at the time of adding 1% serum or serotonin or β-FGF to stimulate the cells. […] After 20 hours of incubation with retinoids and 1% serum or serotonin or β-FGF, the ^3 H-thymidine incorporation was measured.
(§6) Certain of the retinoids were then tested for mitogen-induced cellular proliferation, utilizing serotonin (5HT) and β-FGF as such mitogens. In this testing, as reported in Table 3, below, the same dosages were evaluated for their effect on mitogen-induced cellular proliferation (The results are reported as ED50 and compared to the ED50 for serum-induced smooth muscle and endothelial cell growth).

For assay [4], the system named is endothelial cells (canine aorta). In words: Serotonin-induced endothelial cell proliferation, 3H-thymidine incorporation. It is filed as cell-based. The conditions noted are these: Canis lupus familiaris, Table 3, read-out: ED50 FOR ENDOTHELIAL Cells, Serotonin. Here is the method: as §1, §5, §6
For assay [5], the system named is smooth muscle cells (canine aorta). In words: β-FGF-induced smooth muscle cell proliferation, 3H-thymidine incorporation. The conditions noted are these: Canis lupus familiaris, Table 3, read-out: ED50 FOR SMOOTH MUSCLE CELLS, β-FGF. The format is cell-based. On the procedure: as §1, §5, §6
In assay [6] the test system is endothelial cells (canine aorta). In words: β-FGF-induced endothelial cell proliferation, 3H-thymidine incorporation. The format is cell-based. The conditions noted are these: Canis lupus familiaris, Table 3, read-out: ED50 FOR ENDOTHELIAL Cells, β-FGF. On the procedure: as §1, §5, §6
Assay [7] concerns RAR and RXR receptor. In words: RAR vs RXR agonist activity (retinoid selectivity). The format is biochemical. The conditions noted are these: Table 2; RAR selective agonist preferably has RAR vs RXR activity ratio of at least 5.
Text: (Of course, pan agonists show agonist activity at both the RAR and RXR receptor.)
A pan agonist will have activity at both of the RAR and RXR receptor, e.g. similar potency at the RAR and RXR receptor.
Assay [8] relates to endothelial cells (canine aorta). In words: Serum (1%)-induced endothelial cell proliferation, 3H-thymidine incorporation. The conditions noted are these: Canis lupus familiaris, 1% serum, 100% = 1739 ± 71 cpm/10^6 cells, serum stimulated 1246 ± 91, read-out: % ENDOTHELIAL (cell growth, % of baseline 3H-thymidine incorporation). It is filed as cell-based.
Assay [9] concerns smooth muscle cells (canine aorta). Put plainly: Serum (1%)-induced smooth muscle cell proliferation, 3H-thymidine incorporation. It is filed as cell-based.
Setting [10] is: Canis lupus familiaris, Endothelial cell, serum induced, Table 2.
[11] abbreviates: serum induced, Table 2, read-out: ED50 FOR SMOOTH MUSCLE CELLS (concentration at which proliferation is inhibited by 50%).
Where [12] appears, read: Canis lupus familiaris, Endothelial cell.
Setting [13] is: read-out: ED50 FOR SMOOTH MUSCLE CELLS (concentration at which proliferation is inhibited by 50%).

Consider `CC1=C(/C=C/C(C)=C\C=C\C(C)=C\C(=O)O)C(C)(C)CCC1` [AGN 192013, (2E,4E,6Z,8E)-3,7-dimethyl-9-(2,6,6-trimethyl-1-cyclohexen-1-yl)-2,4,6,8-nonatetraenoic acid, reference compound], for which the IC50 in assay [1] (setting [10]) is 2.25 µM; in assay [2] (setting [11]), over 100 µM; in [2] (serum induced, Table 3, read-out: ED50 FOR SMOOTH MUSCLE CELLS, Serum), over 100 µM; in assay [3] it was 0.41 µM; in assay [4] it was 0.16 µM; in assay [5] it was over 100 µM. In addition, in assay [6], the IC50 turned out to be 26.5 µM. Besides, in [1] (serum induced), the “order of potency for endothelial cells” value is “AGN 192013>AGN 190205=AGN 191183”.
As for `CC(C)(C)c1ccc(C#Cc2ccc(C(=O)O)cc2)cc1OC1CCCCO1` (stereo not shown) [AGN 192326, 4-[2-(3-(2-tetrahydropyranyl)oxy)-(4-(1,1-dimethylethyl)phenyl)ethynyl]benzoic acid], the IC50 in [1] (setting [10]) amounted to 16.5 µM; in assay [2] (setting [11]) it was 6.5 µM. The “rank order potency on smooth muscle cells” value (“rank order potency” below) in assay [2] (serum induced) is on record as “AGN 191659=191183>AGN 192327>AGN 191985>AGN 192326”. Further, the SELECTIVITY result in assay [7] was “RAR”.
On to `C/C(=C\c1ccc(C(=O)O)s1)c1cc2c(cc1C)C(C)(C)CCC2(C)C` [AGN 191659, (E)-5-[2-(5,6,7,8-tetrahydro-3,5,5,8,8-pentamethyl-2-naphthalenyl)-1-propen-1-yl] thiophene-2-carboxylic acid], for which the IC50 in assay [1] (setting [10]) was 39 µM; in assay [2] (setting [11]), 0.038 µM. Also, in assay [2] (serum induced), the “rank order potency” value is reported as “AGN 191659=191183>AGN 192327>AGN 191985>AGN 192326”. The SELECTIVITY result in [7] was “PAN AGONIST”.
Consider `C/C(=C\c1ccc(C(=O)O)cc1)c1ccc2c(c1)C(C)(C)CCC2(C)C` [AGN 191183, (E)-4-[2-(5,6,7,8-tetrahydro-5,5,8,8-tetramethyl-2-naphthalenyl)-1-propen-1-yl] benzoic acid], for which the figures for the IC50 in assay [1] (setting [12]) and in [2] (setting [13]) were 6.15 µM and 0.03 µM, respectively. Also, the “order of potency for endothelial cells” value in assay [1] (serum induced) is recorded as “AGN 192013>AGN 190205=AGN 191183”. For the same molecule, the activity at 0.1 µM is 959 ± 115% in [8] (0.1 μM) and 219 ± 22% in assay [9] (Canis lupus familiaris, 0.1 μM, 1% serum, 100% = 2108 ± 165 cpm/10^6 cells, serum stimulated 725 ± 170, read-out: % SMOOTH MUSCLE (cell growth, % of baseline 3H-thymidine incorporation)). The activity at 0.5 µM in assay [8] (0.5 μM) worked out at 840 ± 108%; in [9] (Canis lupus familiaris, 0.5 μM, 1% serum, 100% = 2108 ± 165 cpm/10^6 cells, serum stimulated 725 ± 170, read-out: % SMOOTH MUSCLE (cell growth, % of baseline 3H-thymidine incorporation)), 205 ± 17%. In addition, the activity at 1 µM in assay [8] (1 μM) was 815 ± 171%; in [9] (Canis lupus familiaris, 1 μM, 1% serum, 100% = 2108 ± 165 cpm/10^6 cells, serum stimulated 725 ± 170, read-out: % SMOOTH MUSCLE (cell growth, % of baseline 3H-thymidine incorporation)) it was 185 ± 10%. Besides, the activity at 5 µM amounted to 686 ± 40% in assay [8] (5 μM) and 182 ± 3% in assay [9] (Canis lupus familiaris, 5 μM, 1% serum, 100% = 2108 ± 165 cpm/10^6 cells, serum stimulated 725 ± 170, read-out: % SMOOTH MUSCLE (cell growth, % of baseline 3H-thymidine incorporation)). The activity at 10 µM was found to be 406 ± 32% in assay [8] (10 μM) and 126 ± 18% in assay [9] (Canis lupus familiaris, 10 μM, 1% serum, 100% = 2108 ± 165 cpm/10^6 cells, serum stimulated 725 ± 170, read-out: % SMOOTH MUSCLE (cell growth, % of baseline 3H-thymidine incorporation)). In addition, the activity at 50 µM in assay [8] (50 μM) is 17 ± 2%; in assay [9] (Canis lupus familiaris, 50 μM, 1% serum, 100% = 2108 ± 165 cpm/10^6 cells, serum stimulated 725 ± 170, read-out: % SMOOTH MUSCLE (cell growth, % of baseline 3H-thymidine incorporation)), 137 ± 25%. For the same molecule, the activity at 100 µM in assay [8] (100 μM) was found to be 9.3 ± 2.3%; in assay [9] (Canis lupus familiaris, 100 μM, 1% serum, 100% = 2108 ± 165 cpm/10^6 cells, serum stimulated 725 ± 170, read-out: % SMOOTH MUSCLE (cell growth, % of baseline 3H-thymidine incorporation)), 77 ± 28%. In addition, in assay [9] (Canis lupus familiaris, 0.01 μM, 1% serum, 100% = 2108 ± 165 cpm/10^6 cells, serum stimulated 725 ± 170, read-out: % SMOOTH MUSCLE (cell growth, % of baseline 3H-thymidine incorporation)), the activity at 0.01 µM came out at 376 ± 17%. Moreover, in [9] (Canis lupus familiaris, 0.05 μM, 1% serum, 100% = 2108 ± 165 cpm/10^6 cells, serum stimulated 725 ± 170, read-out: % SMOOTH MUSCLE (cell growth, % of baseline 3H-thymidine incorporation)), the activity at 0.05 µM came out at 348 ± 95%. Besides, in assay [2] (serum induced), the “rank order potency” value is “AGN 191659=191183>AGN 192327>AGN 191985>AGN 192326”. Also, the “effectiveness for inhibiting the growth of smooth muscle and endothelial cells” value in assay [2] (smooth muscle and endothelial cells (also A2), serum induced) is “most effective retinoid for inhibiting the growth of both smooth muscle and endothelial cells”. Also, the SELECTIVITY result in [7] is recorded as “RAR”.
As for `CC1(C)CCC(C)(C)c2cc(C#Cc3ccc(C(=O)O)cc3)ccc21` [AGN 190205, 4-[2-(5,6,7,8-tetrahydro-5,5,8,8-tetramethyl-2-naphthalenyl)ethynyl] benzoic acid], the IC50 in [1] (setting [12]) turned out to be 6.8 µM; in assay [2] (setting [13]), 8.95 µM. In assay [1] (serum induced), the “order of potency for endothelial cells” value was “AGN 192013>AGN 190205=AGN 191183”. Further, the SELECTIVITY result in assay [7] is “RAR”.
Take `C/C(=C\c1cc(C(=O)O)cs1)c1cc2c(cc1C)C(C)(C)CCC2(C)C` [AGN 191701, reference compound]: the IC50 in assay [1] (serum induced, Table 2) was 28.5 µM; in assay [9] (setting [11]), 18 µM. Also, the SELECTIVITY result in assay [7] is recorded as “RXR”.
Take `CC(C)(C)c1ccc(C#Cc2ccc(C(=O)O)cn2)cc1OC1CCCCO1` (stereo not shown) [AGN 192327, 6-[2-(3-(2-tetrahydropyranyl)oxy)-(4-(1,1-dimethylethyl)phenyl)ethynyl]-3-nicotinic acid]: the IC50 in assay [1] (setting [10]) was 29 µM; in assay [2] (setting [11]), 4 µM. The “rank order potency” value in assay [2] (serum induced) is “AGN 191659=191183>AGN 192327>AGN 191985>AGN 192326”. Besides, the SELECTIVITY entry in assay [7] was “RAR”.
Turning to `CC1=C(/C=C/C#Cc2ccc(C(=O)O)cc2)C(C)(C)CCC1` [AGN 190121, (E)-4-[4-(2,6,6-trimethyl-1-cyclohexen-1-yl)but-2-en-1-ynyl] benzoic acid], the figures for the IC50 in assay [1] (setting [10]) and in assay [2] (setting [11]) were 23 µM and 46 µM, respectively. Moreover, the SELECTIVITY result in assay [7] is reported as “RAR”.
